{
  "source": "patent US20060166996A1",
  "about": "“Phthalazine derivatives as phosphodiesterase 4 inhibitors” (Zambon Group S.P.A., priority 2002, published 2006)",
  "key": {"[1]": {"target": "PDE 5 (Homo sapiens, UniProt O76074)", "assay": "PDE 5 enzyme inhibition (SPA)", "type": "biochemical, healthy volunteers", "settings": "PDE 5 from platelet rich plasma; 3H-cGMP; read-out: PDE 3-5 IC 50 (nM): PDE 5", "experimental": "PDE 3 and PDE 5 enzymes were purified from platelet rich plasma (PRP) obtained from healthy volunteers.\nPDE 3 and PDE 5 enzymes were purified according to Simpson A. W. M. et al. (Biochem. Pharmacol. 1988, 37, 2315-2320) partially modified for the FPLC technique (Fast Protein Liquid Chromatography).\nThe PRP was diluted 1:2 in saline solution and centrifuged at 2000×g for 15 minutes at room temperature.\nThe pellet was suspended in 10 ml of lysis solution (155 mM NH4Cl, 10 mM KHCO3 and 0.1 mM Na2EDTA pH 7.4) and incubated for 10 minutes on ice-bath to remove erythrocyte contamination.\nAfter centrifugation, platelets were suspended in 10 ml of 20 mM Bis-Tris, 2 mM EDTA, 5 mM β-mercaptoethanol, 50 mM sodium acetate, 2 mM benzamidine) and homogenised with a Polytron homogeniser on ice-bath.\nThe homogenate was centrifuged and the supernatant applied to a UNO Q12 column connected to a Biologic Chromatography system (FPLC, BIO RAD).\nPDE 3 and PDE 5 enzymes were eluted with a linear 0.05-1M sodium acetate gradient and the elution fractions were collected for PDE enzymes activity assay.\nFractions containing PDE activities were pooled, dialysed overnight against distilled water and concentrated 10 times by an Amicon filtration system (using YM10 membrane filter). Ethylene glycol was added to a final concentration of 30% v/v and the solution stored at −20° C.\n(§1) Enzymatic activity was stable for several weeks under these conditions.\nEnzymes activity assay were performed using Scintillation Proximity Assay (SPA) Amersham kit consisting of tracer ^3H-cAMP for PDE3 or ^3H-cGMP for PDE5, PDE assay buffer (10×solution: 500 mM TRIS/HCl pH 7.5, 83 mM MgCl2 and 17 mM EGTA) and Yttrium SPA PDE beads (containing 18 mM zinc sulphate).\n(§2) The radioactivity of the beads was measured using a scintillation counter (Packard model MINAXI β TRI-CARB 4000 SERIES)."}, "[2]": {"target": "T1, PDE 2 (Rattus norvegicus, UniProt Q01062)", "T1 construct": "Fractions containing PDE 2 enzyme activity were pooled; endogenous in cells; host or cells: PC12 cells (Istituto Zooprofilattico Brescia)", "T1 sequence (Q01062 1-928)": "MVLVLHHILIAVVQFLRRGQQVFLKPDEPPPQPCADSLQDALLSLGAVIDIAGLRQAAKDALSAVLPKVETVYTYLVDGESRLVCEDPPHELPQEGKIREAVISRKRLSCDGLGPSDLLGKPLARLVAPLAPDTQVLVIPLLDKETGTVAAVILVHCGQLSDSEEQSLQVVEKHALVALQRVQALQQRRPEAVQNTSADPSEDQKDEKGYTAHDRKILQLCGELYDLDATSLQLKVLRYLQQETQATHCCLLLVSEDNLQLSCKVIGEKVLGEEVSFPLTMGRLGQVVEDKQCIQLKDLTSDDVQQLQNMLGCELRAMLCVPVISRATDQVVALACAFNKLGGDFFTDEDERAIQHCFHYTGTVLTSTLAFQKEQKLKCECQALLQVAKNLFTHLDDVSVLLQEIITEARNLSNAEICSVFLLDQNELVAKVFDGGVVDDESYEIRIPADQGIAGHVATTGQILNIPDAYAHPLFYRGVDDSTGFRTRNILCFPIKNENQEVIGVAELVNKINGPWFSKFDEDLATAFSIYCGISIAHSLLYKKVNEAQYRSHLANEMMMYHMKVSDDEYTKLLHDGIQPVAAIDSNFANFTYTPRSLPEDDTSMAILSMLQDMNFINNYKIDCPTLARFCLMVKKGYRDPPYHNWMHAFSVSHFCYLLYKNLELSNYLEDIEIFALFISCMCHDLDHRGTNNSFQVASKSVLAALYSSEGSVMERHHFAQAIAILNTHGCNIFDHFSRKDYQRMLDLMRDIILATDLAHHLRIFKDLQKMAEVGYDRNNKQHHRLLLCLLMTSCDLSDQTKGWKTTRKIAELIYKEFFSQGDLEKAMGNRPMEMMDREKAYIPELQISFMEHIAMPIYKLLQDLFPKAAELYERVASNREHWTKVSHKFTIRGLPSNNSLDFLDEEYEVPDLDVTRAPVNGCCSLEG", "assay": "PDE 2 enzyme inhibition (SPA)", "type": "biochemical", "settings": "PDE 2 from murine PC12 cells; read-out: PDE 2 IC 50", "experimental": "PDE 2 was purified from murine PC12 cells according to Whalin et al. (Molecular Pharmacol. 1991, 39, 711-717).\nPC12 cells from Istituto Zooprofilattico Brescia (Italy) were maintained in […] flasks at 37° C. and 5% CO2 in DMEM containing 5% FCS, 15% horse serum, 1% penicillin, 1% streptomycin and 1% glutamine.\nThe cells were expanded paying attention to split them only at reached confluency.\nAfter washing the cells were detached with 0.05% trypsin/0.02%EDTA and collected in a clean test tube.\nAfter centrifugation, the cells were suspended in buffer containing Bis-Tris 20 mM, EDTA 2 mM, 2-mercaptoethanol 5 mM, leupeptin 1 μM, pepstatin A 1 μM, PMSF 100 μM, pH 6.5, and homogenised using a Polytron homogeniser.\nAfter centrifugation, the supernatant fraction was applied to a UNO Q-12 column connected to a Biologic Chromatography system (FPLC, BIO RAD).\nPDE 2 enzyme was eluted with a linear 0.05-1M sodium acetate gradient and elution fractions were collected for PDE 2 enzyme activity assay.\nFractions containing PDE 2 enzyme activity were pooled, dialysed overnight against distilled water and concentrated 10 times by an Amicon filtration system (using YM10 membrane filter).\nEthylene glycol was added to a final concentration of 30% v/v and the solution stored at −20° C.\nas §1\nPDE 2 activity assay was performed using Scintillation Proximity Assay (SPA) Amersham kit consisting of tracer ^3H-cAMP, PDE assay buffer (10×solution: 500 mM TRIS/HCl pH 7.5, 83 mM MgCl2 and 17 mM EGTA) and Yttrium SPA PDE beads (containing 18 mM zinc sulphate).\nas §2"}, "[3]": {"assay": "Solubility test by HPLC in PBS pH 7.4", "type": "physicochemical", "settings": "PBS pH 7.4, HPLC against standard, compounds of formula I; for solubility kinetic: PBS (phosphate buffer saline), aqueous buffer, kinetic from dmso stock", "experimental": "HPLC method used to test the solubility.\nSolubility test was performed by HPLC analysis (column 4.6×15 mm) water/0.1% TFA —CH3CN/0.06% TFA gradient) against standard.\nA […] solution of the substance dissolved in DMSO was prepared.\nIn order to prepare the sample 190 μl of PBS (Phosphate Buffer Saline, pH 7.4) were added to 10 μl of the above solution; instead (while) in order to prepare the standard 190 μl of DMSO to other 10 μl of solution were added."}},
  "data": [
    {"smiles": "COc1ccc2c(Cc3c(Cl)cncc3Cl)nnc(-c3sccc3C(=O)O)c2c1", "note": "[Compound 10, 2-[4-(3,5-dichloro-pyridin-4-ylmethyl)-7-methoxy-phthalazin-1-yl]-thiophene-3-carboxylic Acid]", "values": [
      {"measurement": "IC50", "setting": "[1]", "result": "> 10000", "unit": "nM"},
      {"measurement": "IC50", "setting": "[2]", "result": "> 10", "unit": "µM"},
      {"measurement": "solubility kinetic", "setting": "[3]", "result": 253, "unit": "µg/mL"},
      {"measurement": "Sol.", "setting": "[3]", "result": 567.26, "unit": "µM"}
    ]},
    {"smiles": "COc1ccc2c(Cc3c(Cl)cncc3Cl)nnc(-c3cccc(C(=O)O)c3)c2c1", "note": "[Compound 2, 3-[4-(3,5-dichloro-pyridin-4-ylmethyl)-7-methoxy-phthalazin-1-yl]-benzoic Acid]", "values": [
      {"measurement": "IC50", "setting": "[1]", "result": "> 10000", "unit": "nM"},
      {"measurement": "IC50", "setting": "[2]", "result": "> 10", "unit": "µM"},
      {"measurement": "solubility kinetic", "setting": "[3]", "result": 216, "unit": "µg/mL"},
      {"measurement": "Sol.", "setting": "[3]", "result": 482.14, "unit": "µM"}
    ]},
    {"smiles": "O=C(O)c1cccc(-c2nnc(Cc3c(Cl)cncc3Cl)c3ccc(OC(F)F)cc23)c1", "note": "[Compound 8, 3-[4-(3,5-dichloro-pyridin-4-ylmethyl)-7-difluoromethoxy-phthalazin-1-yl]-benzoic Acid]", "values": [
      {"measurement": "IC50", "setting": "[1]", "result": "> 10000", "unit": "nM"},
      {"measurement": "IC50", "setting": "[2]", "result": "> 10", "unit": "µM"},
      {"measurement": "solubility kinetic", "setting": "[3]", "result": 470, "unit": "µg/mL"},
      {"measurement": "Sol.", "setting": "[3]", "result": 987.39, "unit": "µM"}
    ]}
  ]
}
